Common to all, as to format: physicochemical
Data set [1] in a line: Aqueous solubility (general statements).
Data set [2] is described as follows: Solubility in HP-β-CD at high pH. Particulars: 25% cyclodextrin solution, aqueous with cosolvent or surfactant or cyclodextrin. As to the method: Compound forms a metastable supersaturated solution when formulated with cyclodextrins. To assess for increased solubility, Compound 1 was added to a basic cyclodextrin solution to effect dissolution. The resulting solution was then adjusted with hydrochloric acid into a physiologically compatible pH range and subjected to kinetic solubility, equilibrium solubility, and formulation solubility analyses.
Kinetic solubility. […] The resulting intermediate pH values were approximately 12.5, which promoted rapid dissolution of Compound 1. However, the solutions are known to be chemically labile at higher pH values. The concentration of Compound 1 in subsequent formulation evaluations was lowered to 20 mg/mL and then reduced to 15 mg/mL.

Data set [3] is described as follows: Solubility measurement in solvents. Particulars: for solubility at 2 h / solubility at 0.5 h: room temperature. As to the method:
(§1) Solubility analysis of Compound 1 (N-(benzo[d]thiazol-2-yl)-4-((2-hydroxy-3-methoxybenzyl)amino)benzenesulfonamide) was performed in a total of 25 media including organic solvent, co-solvent, solubilizer and buffer, for 2 hours at room temperature.
(§2) HPLC method with acceptable resolution and main peak purity developed to determine solubility. The method is described in Table 3.
About 5 mg of Compound 1 was weighed to sample vial and 0.5 mL of solvent was added (target concentration was 10 mg/mL) with 30-100 μL per time. The samples were shaken at room temperature. The samples were prepared in duplicate (n=2) per medium and filtered at 0.5 and 2 hours. The supernatant was collected and analyzed by HPLC.

Data set [4] can be described thus: Solubility measurement in solubilizers (aqueous phosphate buffer at pH 7.4). As to the method: as §1, §2
(§3) 5-10 mg of Compound 1 was added to 0.5-1 mL each medium (target concentration was 10 mg/mL), vortexed briefly to create a suspension. The samples were shaken at room temperature. The samples were prepared in duplicate (n=2) per medium and filtered at 0.5 and 2 hours. The supernatant was collected and analyzed by HPLC.

The nature of data set [5]: Solubility measurement in buffers over a pH range. Particulars: thermodynamic from solid. The protocol: as §1, §2, §3
A short description of data set [6]: Comparative solubility in SBE-β-CD at pH 9.5. Conditions: pH 9.5, 80 mg/mL, 22 hours stirring at room temperature. As to the method: For this study, 1.20 g of SBE-β-CD was weighed into a beaker and 1.31 mL of water was added. This mixture was stirred to dissolve solid completely. 0.846 g of 60% SBE-β-CD stock solution was weighed into a sample vial, and 1.53 mg of GLY, 70 μL of water, and 130 μL of 2N NaOH were added. This mixture was stirred for 10 minutes at room temperature to dissolve solid completely. 80.6 mg of Compound 1 was added (80 mg/mL) and the mixture was sonicated for 10 minutes followed by vigorous stirring for 22 hours at room temperature (23-25° C.).

[7] abbreviates: pH 8.0, read-out: Solubility with 25% cyclodextrin at pH 8.0.
[8] abbreviates: pH 9.8, read-out: Solubility with 25% cyclodextrin at pH 9.8.

Usually solubility stands for the dissolved amount per volume that the medium holds.

In brackets after ≈: the same amount, converted by molar mass.

`COc1cccc(CNc2ccc(S(=O)(=O)Nc3nc4ccccc4o3)cc2)c1O` [Compound 2, N-(benzo[d]oxazol-2-yl)-4-((2-hydroxy-3-methoxybenzyl)amino)benzenesulfonamide]: the Solubility in water entry in data set [1] was “poor solubility”. The solubility in data set [2] (setting [7]) is around 20000 µg/mL (≈ 47000 µM); in data set [2] (setting [8]), around 40000 µg/mL (≈ 94000 µM).
With `COc1cccc(CNc2ccc(S(=O)(=O)Nc3nc4ccccc4s3)cc2)c1O` [Compound 1, N-(benzo[d]thiazol-2-yl)-4-((2-hydroxy-3-methoxybenzyl)amino)benzenesulfonamide], the “solubility at 2 h” value in data set [3] (DMAC, 2 h, visual observation) was “Not precipitated”; in data set [3] (DMSO, 2 h, visual observation), “Not precipitated”; in data set [3] (EtOH, organic solvent or mixture, thermodynamic from solid, EtOH, 2 h, read-out: Solubility at 2 h) it was 270 µg/mL (≈ 612 µM); in data set [3] (Glycerin, organic solvent or mixture, thermodynamic from solid, Glycerin, 2 h, read-out: Solubility at 2 h) it was 25 µg/mL (≈ 56.6 µM); in data set [3] (NMP, 2 h, visual observation), “Not precipitated”; in data set [3] (PEG400, organic solvent or mixture, thermodynamic from solid, PEG400, 2 h, solution was clear at 2 h, read-out: Solubility at 2 h), above 10000 µg/mL. The solubility at 2 h was 420 µg/mL (≈ 951 µM) in data set [3] (PG, organic solvent or mixture, thermodynamic from solid, PG, 2 h, read-out: Solubility at 2 h); below 0.15 µg/mL in data set [3] (n-Hexane, organic solvent or mixture, thermodynamic from solid, n-Hexane, 2 h, LOQ = 0.00015 mg/mL, read-out: Solubility at 2 h); 39 µg/mL (≈ 88.3 µM) in data set [4] (1% Tween 80 in phosphate buffer, pH 7.4, aqueous with cosolvent or surfactant or cyclodextrin, thermodynamic from solid, 1% Tween 80, phosphate buffer pH 7.4, 2 h, read-out: Solubility at 2 h); 51 µg/mL (≈ 116 µM) in data set [4] (5% Cremophor RH40 in phosphate buffer, pH 7.4, aqueous with cosolvent or surfactant or cyclodextrin, thermodynamic from solid, 5% Cremophor RH40, phosphate buffer pH 7.4, 2 h, read-out: Solubility at 2 h); around 100 µg/mL (≈ 226 µM) in data set [4] (5% Solutol in phosphate buffer, pH 7.4, aqueous with cosolvent or surfactant or cyclodextrin, thermodynamic from solid, 5% Solutol, phosphate buffer pH 7.4, 2 h, read-out: Solubility at 2 h); 100 µg/mL (≈ 226 µM) in data set [4] (5% Solutol, phosphate buffer pH 7.4, 2 h). For the same molecule, the solubility at 2 h amounted to 46 µg/mL (≈ 104 µM) in data set [4] (5% Tween 80 in phosphate buffer, pH 7.4, aqueous with cosolvent or surfactant or cyclodextrin, thermodynamic from solid, 5% Tween 80, phosphate buffer pH 7.4, 2 h, read-out: Solubility at 2 h); 63 µg/mL (≈ 143 µM) in data set [4] (10% HP-β-CD in phosphate buffer, pH 7.4, aqueous with cosolvent or surfactant or cyclodextrin, thermodynamic from solid, 10% HP-β-CD, phosphate buffer pH 7.4, 2 h, read-out: Solubility at 2 h); 78 µg/mL (≈ 177 µM) in data set [4] (10% Tween 80 in phosphate buffer, pH 7.4, aqueous with cosolvent or surfactant or cyclodextrin, thermodynamic from solid, 10% Tween 80, phosphate buffer pH 7.4, 2 h, read-out: Solubility at 2 h); 110 µg/mL (≈ 249 µM) in data set [4] (20% Captisol in phosphate buffer, pH 7.4, aqueous with cosolvent or surfactant or cyclodextrin, thermodynamic from solid, 20% Captisol, phosphate buffer pH 7.4, 2 h, read-out: Solubility at 2 h); 190 µg/mL (≈ 430 µM) in data set [4] (20% HP-β-CD in phosphate buffer, pH 7.4, aqueous with cosolvent or surfactant or cyclodextrin, thermodynamic from solid, 20% HP-β-CD, phosphate buffer pH 7.4, 2 h, read-out: Solubility at 2 h); 570 µg/mL (≈ 1290 µM) in data set [4] (40% HP-β-CD in phosphate buffer, pH 7.4, aqueous with cosolvent or surfactant or cyclodextrin, thermodynamic from solid, 40% HP-β-CD, phosphate buffer pH 7.4, 2 h, read-out: Solubility at 2 h). In addition, the concentration in solution in data set [5] (bicarbonate buffer pH 10.0, pH 10, aqueous buffer, Bicarbonate, pH 10.0, 2 h (measured pH 10.08)) (solubility at 2 h) came to 0.576 µg/mL (≈ 1.31 µM). The solubility at 0.5 h was above 100000 µg/mL in data set [3] (DMAC, organic solvent or mixture, thermodynamic from solid, 0.5 h, visual observation); above 100000 µg/mL in data set [3] (DMSO, organic solvent or mixture, thermodynamic from solid, 0.5 h, visual observation); 290 µg/mL (≈ 657 µM) in data set [3] (EtOH, organic solvent or mixture, thermodynamic from solid, 0.5 h); 13 µg/mL (≈ 29.4 µM) in data set [3] (Glycerin, organic solvent or mixture, thermodynamic from solid, 0.5 h); above 100000 µg/mL in data set [3] (NMP, organic solvent or mixture, thermodynamic from solid, 0.5 h, visual observation); 4420 µg/mL (≈ 10000 µM) in data set [3] (PEG400, organic solvent or mixture, thermodynamic from solid, PEG400, 0.5 h). In addition, the solubility at 0.5 h in data set [3] (PG, organic solvent or mixture, thermodynamic from solid, 0.5 h) is 400 µg/mL (≈ 906 µM); in data set [3] (n-Hexane, organic solvent or mixture, thermodynamic from solid, 0.5 h, LOQ = 0.00015 mg/mL) it was below 0.15 µg/mL; in data set [4] (1% Tween 80 in phosphate buffer, pH 7.4, aqueous with cosolvent or surfactant or cyclodextrin, thermodynamic from solid, 1% Tween 80, phosphate buffer pH 7.4, 0.5 h), 20 µg/mL (≈ 45.3 µM); in data set [4] (5% Cremophor RH40 in phosphate buffer, pH 7.4, aqueous with cosolvent or surfactant or cyclodextrin, thermodynamic from solid, 5% Cremophor RH40, phosphate buffer pH 7.4, 0.5 h) it was 47 µg/mL (≈ 106 µM); in data set [4] (5% Solutol in phosphate buffer, pH 7.4, aqueous with cosolvent or surfactant or cyclodextrin, thermodynamic from solid, 5% Solutol, phosphate buffer pH 7.4, 0.5 h), 78 µg/mL (≈ 177 µM); in data set [4] (5% Tween 80 in phosphate buffer, pH 7.4, aqueous with cosolvent or surfactant or cyclodextrin, thermodynamic from solid, 5% Tween 80, phosphate buffer pH 7.4, 0.5 h), 41 µg/mL (≈ 92.9 µM). Moreover, the solubility at 0.5 h in data set [4] (10% HP-β-CD in phosphate buffer, pH 7.4, aqueous with cosolvent or surfactant or cyclodextrin, thermodynamic from solid, 10% HP-β-CD, phosphate buffer pH 7.4, 0.5 h) came to 56 µg/mL (≈ 127 µM); in data set [4] (10% Tween 80 in phosphate buffer, pH 7.4, aqueous with cosolvent or surfactant or cyclodextrin, thermodynamic from solid, 10% Tween 80, phosphate buffer pH 7.4, 0.5 h), 76 µg/mL (≈ 172 µM); in data set [4] (20% Captisol in phosphate buffer, pH 7.4, aqueous with cosolvent or surfactant or cyclodextrin, thermodynamic from solid, 20% Captisol, phosphate buffer pH 7.4, 0.5 h), 100 µg/mL (≈ 226 µM); in data set [4] (20% HP-β-CD in phosphate buffer, pH 7.4, aqueous with cosolvent or surfactant or cyclodextrin, thermodynamic from solid, 20% HP-β-CD, phosphate buffer pH 7.4, 0.5 h) it was 170 µg/mL (≈ 385 µM); in data set [4] (40% HP-β-CD in aqueous phosphate buffer pH 7.4, pH 7.4, aqueous with cosolvent or surfactant or cyclodextrin, thermodynamic from solid, 40% HP-β-CD, phosphate buffer pH 7.4, 0.5 h) it was 450 µg/mL (≈ 1020 µM); in data set [5] (bicarbonate buffer pH 10.0, pH 10, aqueous buffer, Bicarbonate, pH 10.0, 0.5 h (measured pH 10.02)), 0.397 µg/mL (≈ 0.899 µM). Further, the solubility in data set [3] (PEG400, organic solvent or mixture, thermodynamic from solid, PEG400, span over 0.5 h and 2 h, read-out: Solubility in PEG400) is 4000 to 10000 µg/mL (≈ 9060 to 22600 µM); in data set [3] (hexane, organic solvent or mixture, thermodynamic from solid, hexane, non-polar solvent, read-out: Solubility in hexane) it was below 0.15 µg/mL; in data set [3] (solvents other than DMSO, DMAC, NMP and PEG400, organic solvent or mixture, thermodynamic from solid, solvents other than DMSO, DMAC, NMP and PEG400, read-out: Solubility in other solvents), below 1000 µg/mL; in data set [4] (HP-β-CD (range of contents) in aqueous phosphate buffer, pH 7.4, aqueous with cosolvent or surfactant or cyclodextrin, thermodynamic from solid, HP-β-CD, range over contents tested), 50 to 500 µg/mL (≈ 113 to 1130 µM); in data set [5] (pH 10 buffer, pH 10, aqueous buffer, pH 10, read-out: Solubility in pH 10 buffer), 0.4 to 0.6 µg/mL (≈ 0.906 to 1.36 µM); in data set [5] (pH buffers, pH 1, aqueous buffer, pH 1-9 buffers, main peak not detected by HPLC, read-out: Solubility in pH buffers, pH 1-9) it was below 0.15 µg/mL. For the same molecule, the solubility was around 20000 µg/mL (≈ 45300 µM) in data set [2] (setting [7]) and around 40000 µg/mL (≈ 90600 µM) in data set [2] (setting [8]). Also, the “Increase of solubility with the increase of HP-β-CD from 10% to 40%” value in data set [4] (HP-β-CD 10% to 40%, pH 7.4) is given as above 8 fold. The “Increase of solubility with the increase of Tween 80 from 1% to 10%” value in data set [4] (Tween 80 1% to 10%) is “about 4 fold”. Also, in data set [4] (same concentration (20%)), the “Solubility in HP-β-CD compared with Captisol (SBE-β-CD)” value is given as “nearly two times greater”. The “Dissolution in SBE-β-CD, visual observation” value in data set [6] was “Little, if any, dissolution”. In addition, the Solubility in water entry in data set [1] was “poor solubility”.
In the case of `COc1cccc(CNc2ccc(S(=O)(=O)Nc3cccc(C(C)C)c3)cc2)c1O` [Compound 3, 4-((2-hydroxy-3-methoxybenzyl)amino)-N-(3-isopropylphenyl)benzenesulfonamide], in data set [1], the Solubility in water entry is on record as “poor solubility”. Besides, the results for the solubility in data set [2] (setting [7]) and in data set [2] (setting [8]) were around 20000 µg/mL (≈ 46900 µM) and around 40000 µg/mL (≈ 93800 µM), respectively.

(Values after patent US20250057857A1, “AQUEOUS PARENTERAL PHARMACEUTICAL FORMULATIONS CONTAINING 4-((2-HYDROXY-3-METHOXYBENZYL)AMINO) BENZENESULFONAMIDE DERIVATIVES” (Veralox Therapeutics Inc., priority 2021, published 2025).)
